Experimental data taken from ChEMBL document CHEMBL1155056, “4-(Anilino)pyrrole-2-carboxamides: Novel non-steroidal/non-anilide type androgen antagonists effective upon human prostate tumor LNCaP cells with mutated nuclear androgen receptor” (Bioorg Med Chem, 2008).
Active and inactive are the calls of the source. The calls are words filed in the database; no cut-off is given here.

Assays:
[1] = biological target: T1, Androgen receptor (Homo sapiens) (UniProt P10275); details: 30 uM
T1 sequence (whole entry): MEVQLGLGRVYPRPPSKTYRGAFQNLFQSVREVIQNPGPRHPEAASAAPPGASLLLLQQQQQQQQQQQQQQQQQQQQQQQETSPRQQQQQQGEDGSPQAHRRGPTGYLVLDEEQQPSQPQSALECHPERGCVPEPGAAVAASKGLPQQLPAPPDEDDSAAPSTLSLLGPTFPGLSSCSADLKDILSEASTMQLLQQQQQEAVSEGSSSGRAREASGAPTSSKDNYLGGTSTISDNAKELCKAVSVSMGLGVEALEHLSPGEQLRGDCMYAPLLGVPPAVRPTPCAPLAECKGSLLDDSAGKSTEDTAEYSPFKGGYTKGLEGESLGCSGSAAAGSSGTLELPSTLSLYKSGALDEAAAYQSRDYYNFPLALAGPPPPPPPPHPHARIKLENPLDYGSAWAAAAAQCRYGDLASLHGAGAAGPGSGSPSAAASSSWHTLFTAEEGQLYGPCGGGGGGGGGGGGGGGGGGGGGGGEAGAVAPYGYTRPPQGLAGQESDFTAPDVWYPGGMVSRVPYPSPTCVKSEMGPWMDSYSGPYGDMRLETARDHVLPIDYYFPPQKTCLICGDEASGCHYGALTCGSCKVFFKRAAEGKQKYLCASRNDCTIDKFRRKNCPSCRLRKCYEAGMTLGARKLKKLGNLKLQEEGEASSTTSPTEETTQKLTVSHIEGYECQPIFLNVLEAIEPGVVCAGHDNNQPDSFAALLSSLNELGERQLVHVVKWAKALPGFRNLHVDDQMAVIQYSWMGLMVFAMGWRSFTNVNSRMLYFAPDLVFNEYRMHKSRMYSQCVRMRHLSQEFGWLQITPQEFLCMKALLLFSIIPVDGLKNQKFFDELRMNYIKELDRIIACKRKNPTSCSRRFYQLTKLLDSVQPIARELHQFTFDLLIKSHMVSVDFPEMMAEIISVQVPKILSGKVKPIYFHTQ
Description: Displacement of [3H]testosterone from wild type human androgen receptor at 30 uM

[2] = biological target: Androgen receptor (Homo sapiens, UniProt P10275, T878A); assay: Displacement of [3H]testosterone from human recombinant androgen receptor T877A mutant expressed in LNCaP cells
Sequence of Androgen receptor (Homo sapiens, UniProt P10275, T878A) (P10275 whole entry T878A): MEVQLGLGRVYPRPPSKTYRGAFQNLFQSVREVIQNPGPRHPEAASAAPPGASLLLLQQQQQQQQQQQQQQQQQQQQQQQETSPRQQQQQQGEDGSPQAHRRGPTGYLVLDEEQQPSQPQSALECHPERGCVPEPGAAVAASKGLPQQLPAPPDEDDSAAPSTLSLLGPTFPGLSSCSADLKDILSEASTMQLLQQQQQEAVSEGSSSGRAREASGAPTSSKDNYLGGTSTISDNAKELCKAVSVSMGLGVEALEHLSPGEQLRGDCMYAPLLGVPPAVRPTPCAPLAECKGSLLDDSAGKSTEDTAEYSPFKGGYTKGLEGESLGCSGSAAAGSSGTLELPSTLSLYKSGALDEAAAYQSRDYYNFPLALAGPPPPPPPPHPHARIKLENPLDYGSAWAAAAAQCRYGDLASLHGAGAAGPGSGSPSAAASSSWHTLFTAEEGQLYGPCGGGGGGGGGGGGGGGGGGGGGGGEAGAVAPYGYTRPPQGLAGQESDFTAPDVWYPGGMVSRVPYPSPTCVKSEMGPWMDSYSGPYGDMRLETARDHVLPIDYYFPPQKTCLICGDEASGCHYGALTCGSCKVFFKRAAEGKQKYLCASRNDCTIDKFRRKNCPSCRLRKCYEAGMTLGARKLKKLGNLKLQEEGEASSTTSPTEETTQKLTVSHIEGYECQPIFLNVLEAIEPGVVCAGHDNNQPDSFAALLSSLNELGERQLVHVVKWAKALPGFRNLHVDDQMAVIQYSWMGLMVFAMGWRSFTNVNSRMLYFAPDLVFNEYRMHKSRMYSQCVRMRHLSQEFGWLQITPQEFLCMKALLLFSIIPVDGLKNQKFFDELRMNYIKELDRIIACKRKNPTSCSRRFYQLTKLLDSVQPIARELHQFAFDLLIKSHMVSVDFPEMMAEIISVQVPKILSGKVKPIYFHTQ

[3] = biological target: T2, Androgen receptor (Homo sapiens, UniProt P10275)
T2 sequence (P10275 whole entry): T1 sequence (whole entry)

[4] = biological target: T1, Androgen receptor (Homo sapiens); assay: Displacement of [3H]testosterone from wild type human androgen receptor at 3 uM
[5] = system: Androgen receptor (Homo sapiens), P10275 [T878A]; assay: Antagonist activity at human recombinant androgen receptor T877A mutant assessed as inhibition of prostate specific antigen production in human LNCaP cells by ELISA; type: functional, cell-based
Sequence of Androgen receptor (Homo sapiens), P10275 [T878A] (P10275 whole entry T878A): as above

[6] = system: LNCaP; assay: Antiproliferative activity against human LNCaP cells; type: functional, cell-based
[7] = biological target: T1, Androgen receptor (Homo sapiens); assay: Antagonist activity at wild type human recombinant androgen receptor assessed as inhibition of testosterone-induced growth of mouse androgen dependent SC3 cells at 1 uM by WST-1 method; type: functional, cell-based; details: SC-3

Structure (SMILES)	Ki [2]	Ki [3]	further results
Cn1cc(N(Cc2ccccc2)c2ccc([N+](=O)[O-])c(C(F)(F)F)c2)cc1C(=O)N1CCCC1	49 nM		inhibition [1]: 52%
Cn1cc(N(Cc2ccc(CO)cc2)c2ccc([N+](=O)[O-])cc2)cc1C(=O)N1CCCC1	1400 nM	1800 nM	
Cn1cc(N(Cc2ccccc2)c2ccc([N+](=O)[O-])cc2)cc1C(=O)O	3 nM	75 nM	
Cn1cc(N(CC2CCCCC2)c2ccc([N+](=O)[O-])cc2)cc1C(=O)N1CCCC1		520 nM	
Cc1cc(C)cc(N(Cc2ccccc2)c2cc(C(=O)N3CCCC3)n(C)c2)c1		350 nM	inhibition [4]: 20%
CC(=O)c1ccc(N(Cc2ccccc2)c2cc(C(=O)N3CCCC3)n(C)c2)cc1	130 nM	140 nM	Activity [5]: inactive
Cn1cc(N(Cc2ccc(O)cc2)c2ccc([N+](=O)[O-])cc2)cc1C(=O)N1CCCC1	330 nM	730 nM	
Cn1cc(N(Cc2ccccc2)c2ccc(C#N)cc2)cc1C(=O)N1CCCC1	6 nM	130 nM	
CN(c1ccc([N+](=O)[O-])cc1)c1cc(C(=O)N2CCCC2)n(C)c1		3600 nM	
Cn1cc(N(Cc2ccccc2)c2ccc(C(F)(F)F)cc2)cc1C(=O)N1CCCC1	36 nM	270 nM	
Cc1cc(C)cc(N(C)c2cc(C(=O)N3CCCC3)n(C)c2)c1		6100 nM	
O=C(c1cccc(N(Cc2ccccc2)c2ccc([N+](=O)[O-])cc2)c1)N1CCCC1		370 nM	
C[C@](O)(CS(=O)(=O)c1ccc(F)cc1)C(=O)Nc1ccc(C#N)c(C(F)(F)F)c1			Activity [6]: Active
Cn1cc(N(Cc2ccccc2)c2ccc([N+](=O)[O-])cc2)cc1C(=O)N1CCCCC1	27 nM	110 nM	
Cn1cc(N(Cc2ccccc2)c2ccccc2[N+](=O)[O-])cc1C(=O)N1CCCC1		1300 nM	inhibition [7]: 27%
CCOC(=O)c1cc(N(Cc2ccccc2)c2ccc([N+](=O)[O-])cc2)cn1C	7 nM	180 nM	
Cn1cc(N(Cc2ccccc2)c2ccc([N+](=O)[O-])cc2)cc1C(N)=O		220 nM	
Cn1cc(N(Cc2ccccc2)c2ccc([N+](=O)[O-])cc2)cc1C(=O)N1CCc2ccccc21	9 nM		inhibition [4]: 25%

Structure (SMILES)	Ki [2]	Ki [3]	further results
Cn1cc(Nc2ccc([N+](=O)[O-])cc2)cc1C(=O)N1CCCC1		4900 nM	
CCN(CC)C(=O)c1cc(N(Cc2ccccc2)c2ccc([N+](=O)[O-])cc2)cn1C	3 nM	100 nM	
CCN(c1ccc([N+](=O)[O-])cc1)c1cc(C(=O)N2CCCC2)n(C)c1		2000 nM	
Cn1cc(N(Cc2ccccc2)c2ccc([N+](=O)[O-])cc2)cc1C(=O)N1CCCC1	5 nM	110 nM	Activity [6]: Active
Cc1cc(C)cc(N(c2cc(C(=O)N3CCCC3)n(C)c2)C(C)C)c1		2700 nM	
Cc1cc(C)cc(Nc2cc(C(=O)N3CCCC3)n(C)c2)c1		3100 nM	
CC(C)(O)C(=O)Nc1ccc([N+](=O)[O-])c(C(F)(F)F)c1			Activity [6]: inactive
Cn1cc(N(Cc2ccccc2)c2ccc([N+](=O)[O-])cc2)cc1CO		170 nM	
CCN(c1cc(C)cc(C)c1)c1cc(C(=O)N2CCCC2)n(C)c1		2700 nM	
COC(=O)c1ccc(N(Cc2ccccc2)c2cc(C(=O)N3CCCC3)n(C)c2)cc1	180 nM	180 nM	Activity [5]: inactive
O=C(c1ccc(N(Cc2ccccc2)c2ccc([N+](=O)[O-])cc2)cc1)N1CCCC1		340 nM	
CC(C)N(c1ccc([N+](=O)[O-])cc1)c1cc(C(=O)N2CCCC2)n(C)c1		3400 nM	
Cc1cc(C)cc(N(Cc2ccc(CO)cc2)c2cc(C(=O)N3CCCC3)n(C)c2)c1		2200 nM	
Cc1cc(C)cc(N(CC2CCCCC2)c2cc(C(=O)N3CCCC3)n(C)c2)c1		490 nM	
Cn1cc(N(Cc2ccc(F)cc2)c2ccc([N+](=O)[O-])cc2)cc1C(=O)N1CCCC1	140 nM	800 nM	
Cc1cc(C)cc(N(Cc2ccc(O)cc2)c2cc(C(=O)N3CCCC3)n(C)c2)c1		690 nM	
Cc1ccc(CN(c2ccc([N+](=O)[O-])cc2)c2cc(C(=O)N3CCCC3)n(C)c2)cc1	130 nM	810 nM	
